Holding throughout (assay type): functional
The test system of one test is Cercospora beticola. The test can be described thus: Fungicidal activity against Cercospora beticola Be-2-6 assessed as mycelial growth inhibition at 25 mg/L after 7 days. As to conditions: Be-2-6, 168 h, read-out: GI.
For another test, the system named is Zymoseptoria tritici. The test can be described thus: Fungicidal activity against Zymoseptoria tritici S3 assessed as mycelial growth inhibition at 25 mg/L after 14 days. As to conditions: S3, 336 h, read-out: GI.
A further test relates to Fusarium graminearum. The test can be described thus: Fungicidal activity against Fusarium graminearum H3 assessed as mycelial growth inhibition at 25 mg/L after 3 days. As to conditions: H3, 72 h, read-out: GI.
A further test has as its system Pyrenophora graminea. The test is described as follows: Fungicidal activity against Pyrenophora graminea IFO-7507 assessed as mycelial growth inhibition at 25 mg/L after 3 days. As to conditions: IFO-7507, 72 h, read-out: GI.
The subject of a further test is Rhynchosporium secalis. The test can be described thus: Fungicidal activity against Rhynchosporium secalis IFO-5290 assessed as mycelial growth inhibition at 25 mg/L after 14 days. As to conditions: IFO-5290, 336 h, read-out: GI.
A further test relates to Gaeumannomyces graminis. The test is described as follows: Fungicidal activity against Gaeumannomyces graminis MAFF305168 assessed as mycelial growth inhibition at 25 mg/L after 1 day. As to conditions: MAFF305168, 24 h, read-out: GI.
Another test relates to Alternaria alternata. The test is described as follows: Fungicidal activity against Alternaria alternata APS-38 assessed as mycelial growth inhibition at 25 mg/L after 3 days. As to conditions: APS-38, 72 h, read-out: GI.
For a further test, the system named is Microdochium nivale. The test is described as follows: Fungicidal activity against Microdochium nivale IFO-7432 assessed as mycelial growth inhibition at 25 mg/L after 3 days. To be noted: IFO-7432, 72 h, read-out: GI.
For the next test, the system named is Rhizoctonia solani. The test is described as follows: Fungicidal activity against Rhizoctonia solani ET0007 assessed as mycelial growth inhibition at 25 mg/L after 1 day. To be noted: ET0007, 24 h, read-out: GI.

Molecules are shown by their SMILES.

On to `Cc1cc(=O)n(C(=O)CCCCC(=O)n2oc(C)cc2=O)o1`, for which the inhibition of growth at 25 µg/mL in the test with Cercospora beticola is 93%; with Zymoseptoria tritici, 52%; in the test with Fusarium graminearum, 27%; in the test on Pyrenophora graminea, 91%; with Rhynchosporium secalis, 100%; with Gaeumannomyces graminis it was 56%. In addition, the results for the inhibition of growth at 25 µg/mL in the test on Alternaria alternata, in the test with Microdochium nivale and in the test with Rhizoctonia solani were 81%, 61% and 18%, respectively.

As to `Cc1cc(=O)n(Cc2ccccc2)o1`, the inhibition of growth at 25 µg/mL with Cercospora beticola was 4%; with Zymoseptoria tritici, 6%; with Fusarium graminearum, 6%; in the test on Pyrenophora graminea, 46%; in the test on Rhynchosporium secalis, 0%; in the test with Gaeumannomyces graminis it was 0%. The values for the inhibition of growth at 25 µg/mL in the test with Alternaria alternata, in the test with Microdochium nivale and in the test on Rhizoctonia solani were 9%, 4% and 10%, respectively.

Consider `Cc1cc(C)c(C(=O)n2oc(C)cc2=O)c(C)c1`, for which the inhibition of growth at 25 µg/mL was 11% in the test with Cercospora beticola; 10% with Zymoseptoria tritici; 10% in the test with Fusarium graminearum; 90% in the test on Pyrenophora graminea; 0% in the test with Rhynchosporium secalis; 22% with Gaeumannomyces graminis. In addition, the inhibition of growth at 25 µg/mL in the test on Alternaria alternata is 22%; in the test with Microdochium nivale, 4%; in the test on Rhizoctonia solani, 3%.

On to `Cc1cc(=O)n(C(=O)/C=C/c2ccsc2)o1`, for which the inhibition of growth at 25 µg/mL in the test with Cercospora beticola is 90%; with Zymoseptoria tritici, 61%; in the test on Fusarium graminearum, 32%; in the test on Pyrenophora graminea, 97%; in the test with Rhynchosporium secalis it was 100%; in the test on Gaeumannomyces graminis, 45%. For the same compound, the results for the inhibition of growth at 25 µg/mL with Alternaria alternata, in the test with Microdochium nivale and in the test with Rhizoctonia solani were 50%, 69% and 100%, respectively.

As to `Cc1cc(=O)n(C(=O)C(C)(C)Oc2ccc(Cl)cc2)o1`, the inhibition of growth at 25 µg/mL with Cercospora beticola was found to be 74%; in the test on Zymoseptoria tritici, 73%; in the test on Fusarium graminearum it was 6%; in the test on Pyrenophora graminea, 81%; in the test on Rhynchosporium secalis it was 100%; in the test on Gaeumannomyces graminis, 29%. Also, the values for the inhibition of growth at 25 µg/mL in the test with Alternaria alternata, in the test with Microdochium nivale and in the test with Rhizoctonia solani were 53%, 23% and 3%, respectively.

For `Cc1cc(=O)n(C(=O)CCC(F)(F)F)o1`, the inhibition of growth at 25 µg/mL in the test on Cercospora beticola came out at 89%; in the test on Zymoseptoria tritici, 65%; in the test with Fusarium graminearum, 32%; with Pyrenophora graminea it was 46%; in the test with Rhynchosporium secalis, 98%; with Gaeumannomyces graminis, 60%. Moreover, the values for the inhibition of growth at 25 µg/mL in the test with Alternaria alternata, in the test on Microdochium nivale and in the test with Rhizoctonia solani were 61%, 54% and 57%, respectively.

`CCn1oc(C)cc1=O`: the inhibition of growth at 25 µg/mL is 2% in the test on Cercospora beticola; 0% in the test on Zymoseptoria tritici; 4% with Fusarium graminearum; 6% with Pyrenophora graminea; 13% with Rhynchosporium secalis; 3% in the test with Gaeumannomyces graminis. For the same compound, the inhibition of growth at 25 µg/mL with Alternaria alternata amounted to 21%; with Microdochium nivale it was 0%; with Rhizoctonia solani it was 0%.

For the compound `Cc1cc(=O)n(C(=O)c2c(F)c(F)c(F)c(F)c2F)o1`, the inhibition of growth at 25 µg/mL came out at 90% in the test on Cercospora beticola; 56% with Zymoseptoria tritici; 22% in the test on Fusarium graminearum; 87% in the test with Pyrenophora graminea; 100% in the test on Rhynchosporium secalis; 0% in the test on Gaeumannomyces graminis. The figures for the inhibition of growth at 25 µg/mL in the test with Alternaria alternata, in the test with Microdochium nivale and with Rhizoctonia solani were 60%, 36% and 5%, respectively.

With `Cc1cc(=O)n(C(=O)C(C)(C)C)o1`, the inhibition of growth at 25 µg/mL in the test on Cercospora beticola was 85%; in the test with Zymoseptoria tritici, 64%; in the test on Fusarium graminearum, 40%; in the test with Pyrenophora graminea, 95%; in the test on Rhynchosporium secalis, 100%; in the test on Gaeumannomyces graminis it was 83%. Besides, the inhibition of growth at 25 µg/mL in the test on Alternaria alternata worked out at 84%; in the test with Microdochium nivale it was 82%; in the test with Rhizoctonia solani, 43%.

With `Cc1cc(O)no1` [HYMEXAZOL], the inhibition of growth at 25 µg/mL came out at 88% with Cercospora beticola; 86% in the test on Zymoseptoria tritici; 45% in the test with Fusarium graminearum; 80% in the test on Pyrenophora graminea; 100% with Rhynchosporium secalis; 56% with Gaeumannomyces graminis. The inhibition of growth at 25 µg/mL with Alternaria alternata worked out at 74%; in the test with Microdochium nivale it was 77%; in the test on Rhizoctonia solani it was 28%.

For the compound `Cc1cc(=O)n(C(=O)C(C)c2ccccc2)o1` (stereo unspecified), the inhibition of growth at 25 µg/mL worked out at 86% in the test on Cercospora beticola; 83% with Zymoseptoria tritici; 33% in the test on Fusarium graminearum; 74% in the test with Pyrenophora graminea; 99% in the test with Rhynchosporium secalis; 5% in the test with Gaeumannomyces graminis. Moreover, the inhibition of growth at 25 µg/mL with Alternaria alternata is 48%; in the test with Microdochium nivale it was 55%; in the test with Rhizoctonia solani, 20%.

With `Cc1cc(=O)n(C(=O)/C=C/c2ccc(Cl)cc2)o1`, the inhibition of growth at 25 µg/mL with Cercospora beticola worked out at 77%; in the test with Zymoseptoria tritici, 77%; with Fusarium graminearum, 43%; in the test with Pyrenophora graminea, 77%; in the test with Rhynchosporium secalis, 100%; in the test on Gaeumannomyces graminis it was 20%. The inhibition of growth at 25 µg/mL in the test with Alternaria alternata came out at 54%; in the test with Microdochium nivale, 45%; in the test with Rhizoctonia solani it was 66%.

For the compound `Cc1cc(=O)n(C(=O)Cc2ccccc2)o1`, the inhibition of growth at 25 µg/mL stood at 84% in the test with Cercospora beticola; 83% in the test with Zymoseptoria tritici; 32% in the test on Fusarium graminearum; 71% with Pyrenophora graminea; 99% in the test with Rhynchosporium secalis; 66% with Gaeumannomyces graminis. In addition, the values for the inhibition of growth at 25 µg/mL in the test on Alternaria alternata, in the test on Microdochium nivale and in the test on Rhizoctonia solani were 67%, 51% and 5%, respectively.

As for `Cc1cc(=O)n(C(=O)CCl)o1`, the inhibition of growth at 25 µg/mL with Cercospora beticola came to 94%; in the test with Zymoseptoria tritici, 70%; with Fusarium graminearum, 28%; with Pyrenophora graminea, 89%; in the test on Rhynchosporium secalis it was 100%; in the test with Gaeumannomyces graminis, 66%. The inhibition of growth at 25 µg/mL in the test on Alternaria alternata worked out at 81%; in the test on Microdochium nivale, 72%; with Rhizoctonia solani it was 19%.

As to `Cc1cc(=O)n(C(=O)C2(C)C(C)(C)C2(Cl)Cl)o1` (stereo unspecified), the inhibition of growth at 25 µg/mL turned out to be 80% in the test on Cercospora beticola; 50% in the test on Zymoseptoria tritici; 20% with Fusarium graminearum; 79% in the test on Pyrenophora graminea; 87% in the test on Rhynchosporium secalis; 0% in the test on Gaeumannomyces graminis. Further, the inhibition of growth at 25 µg/mL in the test with Alternaria alternata is 31%; in the test with Microdochium nivale, 36%; in the test on Rhizoctonia solani, 24%.

Regarding `CCCn1oc(C)cc1=O`, the inhibition of growth at 25 µg/mL stood at 4% in the test with Cercospora beticola; 0% in the test on Zymoseptoria tritici; 8% in the test with Fusarium graminearum; 16% in the test on Pyrenophora graminea; 2% in the test with Rhynchosporium secalis; 3% in the test with Gaeumannomyces graminis. For the same compound, the inhibition of growth at 25 µg/mL in the test on Alternaria alternata worked out at 11%; in the test with Microdochium nivale, 4%; in the test on Rhizoctonia solani it was 15%.

On to `Cc1cc(=O)n(C(=O)/C=C/c2ccoc2)o1`, for which the inhibition of growth at 25 µg/mL was 91% in the test on Cercospora beticola; 53% in the test with Zymoseptoria tritici; 44% with Fusarium graminearum; 96% with Pyrenophora graminea; 100% in the test on Rhynchosporium secalis; 72% in the test on Gaeumannomyces graminis. Further, the values for the inhibition of growth at 25 µg/mL in the test with Alternaria alternata, with Microdochium nivale and in the test with Rhizoctonia solani were 60%, 68% and 90%, respectively.

Take `COCC(=O)n1oc(C)cc1=O`: the inhibition of growth at 25 µg/mL in the test on Cercospora beticola came out at 91%; in the test with Zymoseptoria tritici, 63%; with Fusarium graminearum it was 37%; in the test on Pyrenophora graminea, 82%; in the test with Rhynchosporium secalis it was 100%; in the test on Gaeumannomyces graminis, 54%. Further, the values for the inhibition of growth at 25 µg/mL in the test with Alternaria alternata, in the test with Microdochium nivale and with Rhizoctonia solani were 62%, 45% and 68%, respectively.

Take `Cc1cc(=O)n(C(=O)/C=C/c2cccs2)o1`: the inhibition of growth at 25 µg/mL in the test with Cercospora beticola was 77%; in the test with Zymoseptoria tritici, 78%; in the test on Fusarium graminearum, 40%; in the test with Pyrenophora graminea it was 89%; with Rhynchosporium secalis, 100%; in the test with Gaeumannomyces graminis, 16%. The inhibition of growth at 25 µg/mL in the test with Alternaria alternata amounted to 54%; in the test on Microdochium nivale, 60%; in the test with Rhizoctonia solani it was 75%.

The values are drawn from ChEMBL document CHEMBL3044528, “Potential new fungicides: N-acyl-5-methyl-3(2H)-isoxazolone derivatives” (2012).
